Measured values published in ChEMBL document CHEMBL5344410, “Design, development and evaluation of a prodrug-type TrkA-selective inhibitor with antinociceptive effects in vivo” (Eur J Med Chem, 2023).
Calls of active or inactive are those of the source. No cut-off for these calls is given here.

How the values were obtained:
[1] = target: T1, High affinity nerve growth factor receptor (Homo sapiens, UniProt P04629); test: Inhibition of TRKA (unknown origin) using Kinase substrate 22 pre-incubated with compound for 10 mins followed by substrate and ATP addition measured after 30 mins by mobility shift assay based caliper reader analysis
Target sequence in this assay (P04629 whole entry): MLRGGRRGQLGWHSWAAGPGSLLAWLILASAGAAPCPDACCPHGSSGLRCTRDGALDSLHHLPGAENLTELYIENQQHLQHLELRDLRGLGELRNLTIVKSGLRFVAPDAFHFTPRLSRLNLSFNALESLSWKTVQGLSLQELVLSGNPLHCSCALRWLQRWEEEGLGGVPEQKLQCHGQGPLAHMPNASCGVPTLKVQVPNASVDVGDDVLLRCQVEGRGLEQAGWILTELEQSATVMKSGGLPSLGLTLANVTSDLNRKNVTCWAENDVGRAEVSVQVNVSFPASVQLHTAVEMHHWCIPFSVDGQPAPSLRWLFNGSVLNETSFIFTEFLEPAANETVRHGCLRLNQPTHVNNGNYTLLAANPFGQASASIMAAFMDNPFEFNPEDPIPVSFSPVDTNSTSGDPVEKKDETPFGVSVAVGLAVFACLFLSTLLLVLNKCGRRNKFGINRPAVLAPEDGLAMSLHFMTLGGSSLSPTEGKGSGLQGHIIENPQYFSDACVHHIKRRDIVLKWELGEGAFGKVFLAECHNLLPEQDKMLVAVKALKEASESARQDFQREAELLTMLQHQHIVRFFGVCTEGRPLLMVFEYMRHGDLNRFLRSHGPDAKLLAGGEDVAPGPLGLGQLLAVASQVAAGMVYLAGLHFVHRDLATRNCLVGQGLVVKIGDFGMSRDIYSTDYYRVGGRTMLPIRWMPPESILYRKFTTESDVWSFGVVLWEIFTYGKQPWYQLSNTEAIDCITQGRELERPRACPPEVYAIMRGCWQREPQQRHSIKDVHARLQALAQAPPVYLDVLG

[2] = target: BDNF/NT-3 growth factors receptor (Homo sapiens, UniProt Q16620); test: Inhibition of TRKB (unknown origin) using Kinase substrate 22 pre-incubated with compound for 10 mins followed by substrate and ATP addition measured after 30 mins by mobility shift assay based caliper reader analysis
[3] = target: NT-3 growth factor receptor (Homo sapiens, UniProt Q16288); test: Inhibition of TRKC (unknown origin) using Kinase substrate 22 pre-incubated with compound for 10 mins followed by substrate and ATP addition measured after 30 mins by mobility shift assay based caliper reader analysis
[4] = target: T1, High affinity nerve growth factor receptor; test: Inhibition of human 6-His tagged TRKA expressed in Sf9 insect cells incubated for 2 hrs in presence of ATP by LanthaScreen based FRET assay relative to control; conditions: concentration not given here
Target sequence in this assay (P04629 33-796 limits assumed): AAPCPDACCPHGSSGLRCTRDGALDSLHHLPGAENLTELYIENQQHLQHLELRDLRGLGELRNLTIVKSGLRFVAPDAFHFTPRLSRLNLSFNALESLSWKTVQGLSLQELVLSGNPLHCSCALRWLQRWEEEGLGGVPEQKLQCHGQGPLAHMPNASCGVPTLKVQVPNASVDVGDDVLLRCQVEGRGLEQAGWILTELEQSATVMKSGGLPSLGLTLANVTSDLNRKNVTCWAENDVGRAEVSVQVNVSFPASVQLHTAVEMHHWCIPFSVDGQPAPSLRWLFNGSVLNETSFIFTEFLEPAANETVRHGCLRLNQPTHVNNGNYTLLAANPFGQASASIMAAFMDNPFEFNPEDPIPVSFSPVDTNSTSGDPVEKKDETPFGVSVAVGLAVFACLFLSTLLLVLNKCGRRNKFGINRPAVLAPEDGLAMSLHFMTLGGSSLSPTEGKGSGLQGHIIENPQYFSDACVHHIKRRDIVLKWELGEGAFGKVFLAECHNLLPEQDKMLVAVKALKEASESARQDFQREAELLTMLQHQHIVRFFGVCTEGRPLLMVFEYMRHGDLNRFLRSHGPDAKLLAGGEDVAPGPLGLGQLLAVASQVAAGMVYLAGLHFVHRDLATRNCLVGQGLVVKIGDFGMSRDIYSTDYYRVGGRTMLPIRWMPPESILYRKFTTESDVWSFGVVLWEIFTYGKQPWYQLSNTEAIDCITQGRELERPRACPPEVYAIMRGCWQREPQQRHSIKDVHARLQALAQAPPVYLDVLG

[5] = target: T1, High affinity nerve growth factor receptor; test: Inhibition of human 6-His tagged TRKA expressed in Sf9 insect cells incubated for 2 hrs in presence of ATP by LanthaScreen based FRET assay
Target sequence in this assay (P04629 whole entry): as the sequence (P04629 whole entry) above

[6] = tested on: Mus musculus; test: Antinociceptive activity in Kunming mouse assessed as reduction in nociceptive response at 40 mg/kg,IG administration and measured for 1 to 6 hrs by hot plate test; format: functional, organism-based; conditions: time 1-6 hrs
[7] = tested on: Mus musculus; test: Antinociceptive activity in Kunming mouse assessed as reduction in nociceptive response at 40 mg/kg,IG administration and measured after 1 hr by hot plate test; format: functional; design: scale not given: the % may be the effect or the level left
[8] = tested on: Mus musculus; test: Antinociceptive activity in ATP-induced Kunming mouse assessed as reduction in nociceptive response at 40 mg/kg,IG administration and measured after 1 hr by hot plate test; format: functional, organism-based
[9] = Drug metabolism in mouse hepatocyte assessed as 5-(3-(1-Methy1-1H-pyrazol-3-y1)-4-(trifluoromethyl)benzamido)-6-phenylnicotinic acid metabolite formation at 2 uM incubated for 30 mins by LC-MS/MS analysis; format: ADME, cell-based; conditions: hepatocytes, 0.5 h
[10] = Drug metabolism in mouse hepatocyte assessed as 5-(3-(1-Methyl-1H-pyrazol-3-y1)-4-(trifluoromethyl)benzamido)-6-phenybridirt-3-yldihydrogen phosphate metabolite formation at 2 uM incubated for 30 mins by LC-MS/MS analysis; format: ADME, cell-based; conditions: hepatocytes, 0.5 h
[11] = Drug metabolism in mouse hepatocyte assessed as N-(5-Hydroxy-2-phenylpyridin-3-y1)-3-(1-methyl-1H-pyrazol-3-y1)-4-(trifluoromethyl) benzamide metabolite formation at 2 uM incubated for 30 mins by LC-MS/MS analysis; format: ADME, cell-based; conditions: hepatocytes, 0.5 h
[12] = tested on: Mus musculus; test: Antinociceptive activity in Kunming mouse assessed as reduction in nociceptive response at 100 mg/kg,IG administration and measured for 1 to 6 hrs by hot plate test; format: functional, organism-based; conditions: time 1-6 hrs
[13] = tested on: Mus musculus; test: Antinociceptive activity in Kunming mouse assessed as reduction in nociceptive response at 40 mg/kg,IG administration and measured at 3 hrs by hot plate test; format: functional, organism-based
[14] = tested on: Mus musculus; test: Antinociceptive activity in Kunming mouse assessed as reduction in nociceptive response by measuring effective dose at IG administration measured after 3 hr by hot plate test; format: functional; conditions: po
[15] = tested on: Mus musculus; test: Antinociceptive activity in Kunming mouse assessed as reduction in nociceptive response at 8 mg/kg,IG administrated with TRKA activator, Amitriptyline and measured at 3 hrs by hot plate test; format: functional, organism-based
[16] = Drug uptake in Kunming mouse blood at 15 mg/kg,IG administration measured after 30 mins by LC-MS/MS analysis; format: ADME, organism-based; conditions: in vivo, po, 0.5 h
[17] = Drug metabolism in Kunming mouse blood assessed as 5-(3-(1-Methy1-1H-pyrazol3-yl)-4-(trifluoromethyl)benzamido)-6-phenylnicotinic acid metabolite formation at 15 mg/kg,IG administration measured after 1 hr by LC-MS/MS analysis; format: ADME, organism-based; conditions: in vivo, po
[18] = tested on: Mus musculus; test: Antinociceptive activity in Kunming mouse assessed as reduction in nociceptive response at 15 mg/kg,IG administration and measured after 1 hr by hot plate test; format: functional, organism-based
[19] = tested on: Mus musculus; test: Antinociceptive activity against formalin-induced pain in C57BL/6N mouse assessed as reduction in nociceptive response in phase I at IG administration for 1 hr followed by formalin challenge; format: functional, organism-based
[20] = tested on: Mus musculus; test: Antinociceptive activity against formalin-induced pain in C57BL/6N mouse assessed as reduction in nociceptive response in phase II at IG administration for 1 hr followed by formalin challenge; format: functional, organism-based

Sequence of NT-3 growth factor receptor (Q16288 whole entry): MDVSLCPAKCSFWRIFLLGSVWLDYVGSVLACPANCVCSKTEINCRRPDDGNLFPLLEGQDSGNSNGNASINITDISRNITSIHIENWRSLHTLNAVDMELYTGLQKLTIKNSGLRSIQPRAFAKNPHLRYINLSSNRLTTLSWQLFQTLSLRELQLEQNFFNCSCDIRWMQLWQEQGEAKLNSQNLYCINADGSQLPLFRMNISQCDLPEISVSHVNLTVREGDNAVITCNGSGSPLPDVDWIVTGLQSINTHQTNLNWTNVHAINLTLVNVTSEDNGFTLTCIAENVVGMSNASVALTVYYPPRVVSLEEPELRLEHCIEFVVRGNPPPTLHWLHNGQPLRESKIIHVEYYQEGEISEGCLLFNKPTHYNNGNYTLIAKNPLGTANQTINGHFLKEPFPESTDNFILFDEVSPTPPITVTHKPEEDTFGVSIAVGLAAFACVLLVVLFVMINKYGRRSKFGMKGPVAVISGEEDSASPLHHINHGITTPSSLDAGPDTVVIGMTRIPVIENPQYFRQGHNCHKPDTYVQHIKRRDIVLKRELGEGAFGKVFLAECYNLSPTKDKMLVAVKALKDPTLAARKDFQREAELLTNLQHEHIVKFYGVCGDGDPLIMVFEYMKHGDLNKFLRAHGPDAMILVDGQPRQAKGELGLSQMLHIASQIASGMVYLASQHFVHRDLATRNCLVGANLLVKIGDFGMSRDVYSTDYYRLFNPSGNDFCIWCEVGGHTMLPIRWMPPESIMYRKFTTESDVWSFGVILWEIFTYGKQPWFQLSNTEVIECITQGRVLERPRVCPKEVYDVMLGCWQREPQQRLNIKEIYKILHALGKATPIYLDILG
Sequence of BDNF/NT-3 growth factors receptor (Q16620 whole entry): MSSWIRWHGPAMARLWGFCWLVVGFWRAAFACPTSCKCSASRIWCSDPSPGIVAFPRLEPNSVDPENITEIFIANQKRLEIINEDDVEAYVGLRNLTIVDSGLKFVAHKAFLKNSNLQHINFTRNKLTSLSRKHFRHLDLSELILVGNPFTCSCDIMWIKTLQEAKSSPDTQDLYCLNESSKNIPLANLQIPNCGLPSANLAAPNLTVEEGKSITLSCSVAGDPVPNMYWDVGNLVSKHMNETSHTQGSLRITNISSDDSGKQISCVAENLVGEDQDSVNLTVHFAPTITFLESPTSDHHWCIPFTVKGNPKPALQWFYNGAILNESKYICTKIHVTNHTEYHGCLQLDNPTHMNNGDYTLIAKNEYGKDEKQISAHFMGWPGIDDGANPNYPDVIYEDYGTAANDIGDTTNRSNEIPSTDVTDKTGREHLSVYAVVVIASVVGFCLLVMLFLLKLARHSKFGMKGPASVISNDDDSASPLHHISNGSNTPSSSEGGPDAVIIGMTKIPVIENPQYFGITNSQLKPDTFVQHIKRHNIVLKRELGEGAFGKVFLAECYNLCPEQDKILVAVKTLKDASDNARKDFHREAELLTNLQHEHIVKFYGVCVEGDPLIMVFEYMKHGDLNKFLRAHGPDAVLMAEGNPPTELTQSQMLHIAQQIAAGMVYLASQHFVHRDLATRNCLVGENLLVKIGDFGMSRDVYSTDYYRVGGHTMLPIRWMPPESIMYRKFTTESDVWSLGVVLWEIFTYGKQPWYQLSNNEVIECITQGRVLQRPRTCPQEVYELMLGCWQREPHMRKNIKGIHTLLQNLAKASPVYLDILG

For CCOc1nn(-c2ccccc2)c(NC(=O)N[C@H]2CN(CCOC)C[C@@H]2c2ccc(F)c(F)c2)c1C, the IC50 [1] was 2.7 nM, the IC50 [2] was 1300 nM and the IC50 [3] was 2480 nM.

For Cn1ccc(-c2cc(C(=O)Nc3cc(C(=O)O)cnc3-c3ccccc3)ccc2C(F)(F)F)n1, the IC50 [1] was 22.4 nM, the IC50 [2] was 190000 nM and the IC50 [3] was 20200 nM.

Compound Cn1ccc(-c2cc(C(=O)Nc3cc(O)cnc3-c3ccccc3)ccc2C(F)(F)F)n1 has an IC50 [1] of 70.4 nM, an IC50 [2] greater than 500000 nM and an IC50 [3] greater than 500000 nM.

For Cc1ncc(-c2ccccc2)c(NC(=O)NC2c3ccccc3-c3ccccc32)n1, the IC50 [1] was 99 nM, the IC50 [2] was greater than 81000 nM and the IC50 [3] was 25000 nM. For the same compound, the inhibition [4] was greater than 70% and the IC50 [5] was 99 nM.

In the case of COC(=O)[C@H](C)NP(=O)(Oc1ccccc1)Oc1cnc(-c2ccccc2)c(NC(=O)c2ccc(C(F)(F)F)c(-c3ccn(C)n3)c2)c1 (some centres undefined), the Activity [6] is reported as “Active”, the Activity [7] is reported as 20% and the Activity [8] is reported as “inactive”. The Drug metabolism [9] was “Metabolite_Detected”, the Drug metabolism [10] was “Metabolite_Notdetected” and the Drug metabolism [11] was “Metabolite_Detected”.

In the case of CC(C)Cc1ccc(C(C)C(=O)O)cc1 (centres undefined), the Activity [12] is reported as “Active”.

In the case of CC(=O)OCOC(=O)c1cnc(-c2ccccc2)c(NC(=O)c2ccc(C(F)(F)F)c(-c3ccn(C)n3)c2)c1, the Activity [13] is reported as “Active”, the Activity [7] is reported as 20% and the Activity [8] is reported as “inactive”. For the same compound, the ED50 [14] was 7.84 mg/kg, the Activity [15] was “inactive” and the Drug uptake [16] was “Not Active”. The Drug metabolism [17] was “Metabolite_Detected”, the Activity [18] was “Active” and the Activity [19] was “Dose-Dependent Effect”. For the same compound, the Activity [20] was “Dose-Dependent Effect”, the Drug metabolism [9] was “Metabolite_Detected” and the Drug metabolism [10] was “Metabolite_Notdetected”. For the same compound, the Drug metabolism [11] was “Metabolite_Detected”.

Cn1ccc(-c2cc(C(=O)Nc3cc(OP(=O)(O)O)cnc3-c3ccccc3)ccc2C(F)(F)F)n1 gave an IC50 [1] of 798 nM, an IC50 [2] greater than 500000 nM and an IC50 [3] greater than 500000 nM.

With CC(=O)NCc1ncc(NC(=O)c2ccc(C(F)(F)F)c(-c3cn(C)cn3)c2)c(-c2ccccc2)n1 the IC50 [1] was 4 nM and the IC50 [3] was 760 nM.
